US20250332183A1, “COMPOSITIONS AND METHODS FOR THE STIMULATION OF INTERMEDIATE MACROPHAGES AND TREATMENTS THEREWITH” (priority 2024, published 2025)
Entries after “also recorded” stand apart in the source; their conditions may differ.

Tests used:
[1] = target: T1, CD163 scavenger receptor (Homo sapiens, UniProt Q86VB7); experiment: Binding of AVR-48 to CBMC monocytes and lymphocytes by flow cytometry
T1 construct: endogenous in cells; host or cells: human cord blood mononuclear cells (monocytes and lymphocytes)
Excerpt: N=3 *p≤0.05, **p≤0.01, ***p≤0.001, **** p≤0.0001. Two-way ANOVA was used for statistical analysis.

[2] = tested on: cord blood mononuclear cells (CBMCs); experiment: Cytokine profile in LPS-challenged CBMCs; type: cell-based, human; details: compound 100 μM + LPS 50 ng/mL vs LPS treated cells
Procedure: FIGS. 15A TO 15F show the AVR-48 cytokine profile in CBMCs. Cells treated with AVR-48 [100 μM], LPS [50 ng/mL] and AVR-48+LPS show a decrease (˜2-4-fold) in cytokine signal in (FIG. 15A) TNF-α, (FIG. 15B) IL-1β, (FIG. 15C) IL-10, (FIG. 15D) IL-12, (FIG. 15E) IL-6, and (FIG. 15F) IL-8, and indicates a reduced […] response as compared to LPS treated cells solo. N=3, One-way ANOVA was used for analysis.
CBMCs were treated with either AVR-123 [100 μM], LPS [50 ng/mL] or AVR-123+LPS for 24 h. […] (FIG. 23G) AVR-123 decreases phosphorylated NFkB alone and when combined with LPS in CBMCs via western blot analysis. N=3, One-way ANOVA.

[3] = tested on: mice; experiment: Mouse model of influenza peptide vaccination; type: in vivo; details: AVR-48 alone or with Flu-A peptide, vs MPLA
Procedure: Study design: N=4/per group ([…], 6-7 months old). Group-1: (FluA) 1st dose; No 2nd dose; Group-2: (FluA) 1st dose; (FluA+MPLA) 2nd dose; Group 3: AVR-48 1st dose; No 2nd dose; and Group 4: Flu-A 1st dose; Flu-A+AVR-48 2nd dose.
Outcome measures: immune cell quantification (FACS) in the spleen, and IgG in serum (ELISA).
In vivo study: In one study, C57Bl/6J mice (n=4/group) were dosed intramuscularly (IM) with either complete Freund's adjuvant (CFA) or incomplete Freund's adjuvant (IFA) along with AVR-48 for a 28-day study using a prime-boost-boost regimen. In the second study, mice were dosed with MPLA and Flu-peptide using only the priming dose regimen (no booster). Splenic immune cells and plasma immunoglobin concentrations were assessed at day 28.

[4] = Clinical biochemistry and physiological parameters of treated lambs; type: in vivo, lamb
Procedure: Arterial blood and free-fall urine samples were collected every 24 h and analyzed for indicators of liver and kidney function (Associated Regional and University Pathologists (ARUP) Laboratories, Salt Lake City).
Clinical biochemistry. Plasma and urine samples were analyzed by Associated Regional and University Pathologists (ARUP) at the University of Utah. Plasma renal function parameters are urea nitrogen and creatinine. Plasma hepatic function parameters are alkaline phosphatase, aspartate aminotransferase, alanine aminotransferase, total protein, albumin, bilirubin total, and direct bilirubin.
Physiological parameters for lambs in the early and late-stage studies. Physiology results were obtained including cardiovascular physiology, temperature, respiratory rates, indices for oxygenation, ventilation indices, plasma pH, bicarbonate, base excess, plasma electrolytes, plasma glucose, hematocrit (Hct), total serum protein (Tsp), lactate, enteral feeding, milk residual, and hematology for early and late-stage studies.

[5] = tested on: preterm lamb model of BPD; experiment: Neurobehavioral assessments (curiosity, socialization, learning and memory); type: in vivo
Excerpt: Neurobehavioral assessments. The inventors adapted tests for curiosity, using novel objects of different colors and shapes; socialization, using a nonreflective (dull) surface versus a reflective surface (mirror); and learning and memory, using a maze with a reward.^20 These tests were adapted from other studies that assessed the neurobehavior of sheep.^20-25 Assessments were made over 2 weeks.
Habituation (open-field for exploration; days 1 and 2) was used to familiarize the lambs with the test, rest rooms, and tender. Habituation was accomplished on days 1 and 2 by a 10-minute stay in the test room, a 30-minute rest period in the rest room, and another 10-minute stay in the test room. Habituation was repeated the next day.
Tests were (1) curiosity, using novel objects; (2) socialization, using a non-reflective surface and a reflective surface; and (3) learning and memory (using a maze with a milk bottle reward). The tests were done on sequential days over two weeks. Tests were trials of 10-min each, with a 30-min rest period between trials. Each 10-min trial was video recorded, using the Noldus System (model EthoVision XT 17 with the Physiology Integration Module; Noldus Information Technology Inc., Leesburg, VA). The test room had tape on the floor that divided the floor into 9 zones for identification of movement direction and speed, inactivity, etc., in video playback. A ceiling camera recorded each test session. The camera was connected to a dedicated computer with the Noldus software to document lamb activity and time. The novel objects test required four trials on day 3. Trials 1 and 2 used two objects (brown and blue bowls) affixed to the floor. For trial 3, before the lamb was returned to the test room, the brown bowl was replaced with a novelx object (pink pitcher). For trial 4, before the lamb was returned to the test room, a new object (yellow ball) was added with the blue bowl and pink pitcher (3 objects). Analysis was the number of times and the time spent investigating each object.
The socialization test required two trials each on days 4 and 5. Two metallic surfaces were attached to a wall, one with a non-reflective and the other with a reflective surface. Analysis was the number of times and the time spent investigating each surface.
The following week, the learning and memory test required two trials on day 6. A maze made of solid metal panels was set up in the test room. A tender was in one corner of the maze, holding a bottle of milk, the reward for completing the maze. Once the tender was in place, the lamb entered the test room. Analysis was the time to reach the milk bottle reward.

[6] = tested on: cord blood mononuclear cells (CBMCs); experiment: LPS tolerance / pretreatment in CBMCs; type: cell-based, human
Procedure: Cells were dosed with AVR-48 [100 μM], LPS [50 ng/mL], and in combination show (FIG. 16A). […] N=3, One-way ANOVA was used for analysis. […] N=3, Two-way ANOVA.
N=3 *p<0.05, **p<0.01, ***p<0.001. One-way ANOVA and t tests.

[7] = early-stage study DOL 1-7, vs vehicle
[8] = 2 moC PNA (d90), FPT lambs vs FPT vehicle

T1 sequence (Q86VB7 42-1156): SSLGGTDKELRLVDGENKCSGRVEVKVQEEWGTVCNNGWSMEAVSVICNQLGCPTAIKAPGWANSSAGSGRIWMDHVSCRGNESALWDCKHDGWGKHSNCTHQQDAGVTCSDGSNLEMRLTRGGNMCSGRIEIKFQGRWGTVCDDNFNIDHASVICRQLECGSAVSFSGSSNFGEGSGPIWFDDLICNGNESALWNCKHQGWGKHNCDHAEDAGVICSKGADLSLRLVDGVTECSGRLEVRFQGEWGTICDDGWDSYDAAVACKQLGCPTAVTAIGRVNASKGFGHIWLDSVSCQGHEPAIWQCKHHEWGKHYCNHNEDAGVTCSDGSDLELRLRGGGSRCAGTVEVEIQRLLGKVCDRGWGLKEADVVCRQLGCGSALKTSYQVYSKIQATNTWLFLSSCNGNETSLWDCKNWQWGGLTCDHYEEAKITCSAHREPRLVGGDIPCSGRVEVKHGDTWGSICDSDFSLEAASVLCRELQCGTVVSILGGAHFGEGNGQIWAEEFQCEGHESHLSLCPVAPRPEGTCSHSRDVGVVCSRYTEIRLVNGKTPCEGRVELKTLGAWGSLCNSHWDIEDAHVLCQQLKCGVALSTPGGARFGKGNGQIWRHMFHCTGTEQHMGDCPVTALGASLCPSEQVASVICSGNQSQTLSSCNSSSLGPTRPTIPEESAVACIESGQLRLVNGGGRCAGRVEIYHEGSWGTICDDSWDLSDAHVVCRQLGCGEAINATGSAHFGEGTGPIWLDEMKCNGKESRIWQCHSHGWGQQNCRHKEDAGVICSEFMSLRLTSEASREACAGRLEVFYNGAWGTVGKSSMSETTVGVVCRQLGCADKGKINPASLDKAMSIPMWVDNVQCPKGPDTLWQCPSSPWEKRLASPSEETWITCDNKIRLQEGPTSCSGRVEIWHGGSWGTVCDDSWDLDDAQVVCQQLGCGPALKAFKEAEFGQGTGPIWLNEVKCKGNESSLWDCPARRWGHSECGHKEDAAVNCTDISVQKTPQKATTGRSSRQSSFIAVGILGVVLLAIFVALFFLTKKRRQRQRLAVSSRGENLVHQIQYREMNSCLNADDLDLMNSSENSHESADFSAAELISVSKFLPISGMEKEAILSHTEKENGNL

CC(=O)NC1C(Oc2ccc([N+](=O)[O-])cc2)OC(CO)C(O)C1O (stereo not shown) [AVR-48]
binding to CD163 scavenger receptor [1]: exhibits a binding affinity | decrease in IL-1β [2]: 2-4 fold | decrease in IL-6 [2]: 2-4 fold | decrease in IL-8 [2]: 2-4 fold | decrease in IL-10 [2]: 2-4 fold | decrease in IL-12 [2]: 2-4 fold | decrease in TNF-α [2]: 2-4 fold | CD4+ T-helper cells in mouse spleen [3]: increased | CD8+ T cells in mouse spleen [3]: increased | CD19+ B cells in mouse spleen [3]: increased | CD38+/CD27+ plasma blasts in mouse spleen [3]: increased | IgG in mouse serum [3]: increased | clinical parameters (plasma renal and hepatic function) ([4]; AVR-48 treated lambs): within the normal range | physiological outcomes (cardiovascular, temperature, respiratory rates, plasma chemistry, feeding, hematology) ([4]; early and late-stage studies): no adverse effect | Hematology [4, 7]: No statistical difference | plasma glucose, Hct, Tsp, and lactate [4, 7]: No statistical difference | plasma pH, bicarbonate, and BE [4, 7]: No statistical difference | temperature or respiratory rate [4, 7]: No statistical difference | systolic blood pressure ([4]; early-stage study, DOL 6, vs vehicle, not observed on any other days): higher systolic blood pressure | volume of tolerable enteral feeding and residual in the stomach ([4]; in vivo): No statistical difference | curiosity and socialization outcomes (time at novel object, dull surface, mirror) ([5]; 1 moC PNA (day of life 60), among groups): No differences were detected | time at novel object (curiosity test) ([5]; 2 moC PNA (d90), FPT lambs 3.0 mg/kg/dose vs FPT vehicle): significantly less time; also recorded: significantly shorter | time at the dull surface (socialization test) [5, 8]: less time (not significant); also recorded: significantly shorter | time at the mirror (reflective surface, socialization test) [5, 8]: more time (not significant); also recorded: significantly longer | time to navigate the maze to reach the milk bottle reward (learning and memory test) [5, 8]: significantly faster; also recorded: less (not significant) | IL-1β profile ([6]; CBMC pre-treated with compound 100 μM for 48 h followed by LPS 50 ng/mL): inhibited IL-1β profile | TNF-α in LPS-tolerant CBMCs ([6]; low dose LPS 48 h then second (high dose) LPS, with addition of compound): increased production of TNF-α | TNF-α level ([6]; pretreatment 48 h followed by LPS 24 h, vs control): significant higher level
